# Patent publication US9399647B2, “Proteasome activity modulating compounds” (Proteostasis Therapeutics, Inc., priority 2012, dated 2016)
# pIC50: −log10 of the molar value.
# Molecular target: USP14 (Homo sapiens, UniProt P54578)
# Assay: USP14 inhibition assay
# Format: biochemical
# Conditions: average value from three experimental determinations; read-out: USP14 IC50
# Source text: The IC50 values in the Table below represent the average value from three experimental determinations.
# These IC50 values represent the average value from three experimental determinations.
# Chain of USP14 (P54578 whole entry): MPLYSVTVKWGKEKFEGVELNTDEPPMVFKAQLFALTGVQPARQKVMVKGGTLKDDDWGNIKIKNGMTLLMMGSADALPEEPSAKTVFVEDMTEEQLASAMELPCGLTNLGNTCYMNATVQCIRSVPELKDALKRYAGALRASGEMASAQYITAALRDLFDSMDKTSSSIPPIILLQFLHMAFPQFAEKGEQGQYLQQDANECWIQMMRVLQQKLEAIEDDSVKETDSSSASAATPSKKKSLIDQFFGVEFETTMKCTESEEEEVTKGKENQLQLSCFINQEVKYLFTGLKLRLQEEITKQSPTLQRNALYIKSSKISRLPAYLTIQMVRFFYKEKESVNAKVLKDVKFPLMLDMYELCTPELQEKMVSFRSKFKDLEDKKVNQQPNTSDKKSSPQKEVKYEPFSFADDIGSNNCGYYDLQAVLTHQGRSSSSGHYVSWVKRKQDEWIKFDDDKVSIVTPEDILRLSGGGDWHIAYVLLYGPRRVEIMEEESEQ
# Chain of USP14 (Q13200 whole entry partner): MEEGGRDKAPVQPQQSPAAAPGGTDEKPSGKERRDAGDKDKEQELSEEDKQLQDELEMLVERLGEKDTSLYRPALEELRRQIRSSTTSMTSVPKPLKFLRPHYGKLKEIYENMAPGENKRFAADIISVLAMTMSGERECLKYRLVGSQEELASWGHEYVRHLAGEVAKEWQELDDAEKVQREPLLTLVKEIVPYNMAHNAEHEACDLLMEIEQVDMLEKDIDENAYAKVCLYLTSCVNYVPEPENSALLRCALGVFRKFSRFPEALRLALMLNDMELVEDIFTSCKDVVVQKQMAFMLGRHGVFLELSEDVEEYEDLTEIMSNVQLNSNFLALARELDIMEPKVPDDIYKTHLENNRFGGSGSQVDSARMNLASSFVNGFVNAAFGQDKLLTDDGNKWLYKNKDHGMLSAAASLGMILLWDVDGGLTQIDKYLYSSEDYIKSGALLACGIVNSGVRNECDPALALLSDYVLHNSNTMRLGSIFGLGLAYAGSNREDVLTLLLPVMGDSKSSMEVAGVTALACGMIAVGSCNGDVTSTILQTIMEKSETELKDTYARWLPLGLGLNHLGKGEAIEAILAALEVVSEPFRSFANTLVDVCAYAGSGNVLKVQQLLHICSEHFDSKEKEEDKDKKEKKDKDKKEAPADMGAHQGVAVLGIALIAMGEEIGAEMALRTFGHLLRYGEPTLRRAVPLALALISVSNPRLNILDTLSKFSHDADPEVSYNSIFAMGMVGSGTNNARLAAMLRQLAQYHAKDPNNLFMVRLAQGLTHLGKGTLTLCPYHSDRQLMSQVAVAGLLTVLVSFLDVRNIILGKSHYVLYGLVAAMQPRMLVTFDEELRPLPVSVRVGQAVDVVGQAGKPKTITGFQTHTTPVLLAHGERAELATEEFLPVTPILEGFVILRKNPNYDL
# Chain of USP14 (P35998 whole entry partner): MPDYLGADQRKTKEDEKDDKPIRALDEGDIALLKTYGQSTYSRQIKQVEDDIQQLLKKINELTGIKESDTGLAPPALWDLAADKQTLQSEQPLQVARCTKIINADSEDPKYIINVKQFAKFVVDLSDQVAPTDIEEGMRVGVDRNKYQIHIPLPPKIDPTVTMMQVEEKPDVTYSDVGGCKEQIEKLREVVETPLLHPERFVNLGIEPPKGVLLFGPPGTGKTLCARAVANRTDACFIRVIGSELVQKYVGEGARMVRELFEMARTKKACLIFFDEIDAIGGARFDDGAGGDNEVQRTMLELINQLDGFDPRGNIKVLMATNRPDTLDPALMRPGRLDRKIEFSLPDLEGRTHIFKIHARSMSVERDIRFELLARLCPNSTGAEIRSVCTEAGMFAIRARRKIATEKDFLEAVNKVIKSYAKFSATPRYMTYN
row,pIC50,SMILES
1,6.30,"CN(C)C(=O)Cc1nc(N(C)C2CC2)c2c3c(sc2n1)CCCC3 [Compound 3, 2-(4-(Cyclopropyl(methyl)amino)-5,6,7,8-tetrahydrobenzo[4,5]thieno[2,3-d]pyrimidin-2-yl)-N,N-dimethylacetamide]"

# Same assay, conditions: average value from three experimental determinations; reported as potency bands; read-out: IC50 (USP14 inhibition)
row,SMILES,pIC50
1,"CN(c1nc(CC(=O)N2CCC2)nc2sc3c(c12)CCCC3)C1CC1 [Compound 15, 1-(Azetidin-1-yl)-2-(4-(cyclopropyl(methyl)amino)-5,6,7,8-tetrahydrobenzo[4,5]thieno[2,3-d]pyrimidin-2-yl)ethanone]",> 6.00
2,CN(c1nc(CC(=O)NCCc2cccnc2)nc2sc3c(c12)CCCC3)C1CC1 [Compound 23],5.30 to 6.00
3,CN(c1nc(CC(=O)NCCc2ccccn2)nc2sc3c(c12)CCCC3)C1CC1 [Compound 17],5.30 to 6.00
4,"CN(c1nc(CC(=O)N2CCOCC2)nc2sc3c(c12)CCCC3)C1CC1 [Compound 9, 2-[4-(Cyclopropyl-methyl-amino)-5,6,7,8-tetrahydro-benzo[4,5]thieno[2,3-d]pyrimidin-2-yl]-1-morpholin-4-yl-ethanone]",> 6.00
5,"CN(c1nc(CC(=O)N2CCC(O)CC2)nc2sc3c(c12)CCCC3)C1CC1 [Compound 27, 2-[4-(Cyclopropyl-methyl-amino)-5,6,7,8-tetrahydro-benzo[4,5]thieno[2,3-d]pyrimidin-2-yl]-1-(4-hydroxy-piperidin-1-yl)-ethanone]",> 6.00
6,"CN(c1nc(CC(=O)N2CCC(CO)C2)nc2sc3c(c12)CCCC3)C1CC1 (stereo not shown) [Compound 36, 2-[4-(Cyclopropyl-methyl-amino)-5,6,7,8-tetrahydro-benzo[4,5]thieno[2,3-d]pyrimidin-2-yl]-1-(3-hydroxymethyl-pyrrolidin-1-yl)-ethanone]",> 6.00
7,"CN(c1nc(CC(=O)N2CCCC2C(N)=O)nc2sc3c(c12)CCCC3)C1CC1 (stereo not shown) [Compound 38, 1-(2-(4-(Cyclopropyl(methyl)amino)-5,6,7,8-tetrahydrobenzo[4,5]thieno[2,3-d]pyrimidin-2-yl)acetyl)pyrrolidine-2-carboxamide]",> 6.00
8,"CN(c1nc(CC(N)=O)nc2sc3c(c12)CCCC3)C1CC1 [Compound 5, 2-(4-(Cyclopropyl(methyl)amino)-5,6,7,8-tetrahydrobenzo[4,5]thieno[2,3-d]pyrimidin-2-yl)acetamide]",> 6.00

# Other lines, results leading:
row,pIC50,SMILES
1,5.30 to 6.00,"CN(c1nc(CC(=O)C(F)(F)F)nc2sc3c(c12)CCCC3)C1CC1 [Compound 51, 3-[4-(Cyclopropyl-methyl-amino)-5,6,7,8-tetrahydrobenzo[4,5]thieno[2,3-d]pyrimidin-2-yl]-1,1,1-trifluoro-propan-2-one]"
2,5.30 to 6.00,CN(c1nc(CC(=O)NCc2ccncc2)nc2sc3c(c12)CCCC3)C1CC1 [Compound 16]
3,5.30 to 6.00,"CC(C)NC(=O)Cc1nc(N(C)C2CC2)c2c3c(sc2n1)CCCC3 [Compound 28, 2-[4-(Cyclopropyl-methyl-amino)-5,6,7,8-tetrahydro-benzo[4,5]thieno[2,3-d]pyrimidin-2-yl]-N-isopropyl-acetamide]"
4,5.30 to 6.00,"CN(C)C(=O)Cc1nc(N(C)C2CC2)c2c3c(sc2n1)CCCCC3 [Compound 53, 2-[4-(Cyclopropyl-methyl-amino)-6,7,8,9-tetrahydro-5H-10-thia-1,3-diaza-benz[a]azulen-2-yl]-N,N-dimethyl-acetamide]"
